Laboratory results published in paper PMC11220870, “From X-ray crystallographic structure to intrinsic thermodynamics of protein–ligand binding using carbonic anhydrase isozymes as a model system” (IUCrJ, 2024).

Columns and labels:
CA IX [1] = biological target: T1, CA IX (Homo sapiens, UniProt Q16790); assay: Intrinsic Gibbs energy of binding (TSA); conditions: 37°C, Fig. 5
T1 construct: made in house

CA IX [2] = system: CA IX; parameters: method as in earlier work; conditions: depending on the isozyme, ref Dudutienė et al., 2014, Matulienė et al., 2022, Zakšauskas et al.; cited from earlier work
CA I = CA I (Homo sapiens, UniProt P00915); conditions: intrinsic, 37°C
Chain of CA I (P00915 whole entry): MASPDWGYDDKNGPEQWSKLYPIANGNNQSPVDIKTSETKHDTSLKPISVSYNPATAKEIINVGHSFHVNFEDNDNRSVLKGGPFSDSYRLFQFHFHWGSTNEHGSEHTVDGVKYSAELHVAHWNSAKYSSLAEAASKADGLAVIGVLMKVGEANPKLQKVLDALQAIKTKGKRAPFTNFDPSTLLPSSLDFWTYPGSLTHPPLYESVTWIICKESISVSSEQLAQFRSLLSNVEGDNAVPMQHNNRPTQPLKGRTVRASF
Protocol: Intrinsic thermodynamic parameters of all pairs were determined by TSA and ITC (for calculations we used Gibbs energy obtained by TSA and enthalpy from ITC measurements).

SMILES: COC(=O)c1cc(S(N)(=O)=O)c(SC2CCCCC2)cc1Cl [EA2-3]
- intrinsic standard Gibbs energy of binding (CA IX [1]): -17.9 kcal/mol
- selectivity toward CA IX over remaining isozymes (CA IX [2]): a hundred- to a million-fold

SMILES: CCCSc1c(F)c(F)c(S(N)(=O)=O)c(F)c1F [VD12-05]
- ΔHint (CA I): -17.9 kcal/mol
